Data from patent US8697691B2, “Alkyl 3-((2-amidoethyl)amino)-8-azabicyclo[3.2.1]octane-8-carboxylate analogs as selective M1 agonists and methods of making and using same” (Vanderbilt University, priority 2009, dated 2014).

Target: T1, hM5 receptor (Homo sapiens, UniProt P08912)
T1 construct: expressed in transfected cells; host or cells: CHO cells (Levey et al., 1991)
T1 sequence (P08912 1-532): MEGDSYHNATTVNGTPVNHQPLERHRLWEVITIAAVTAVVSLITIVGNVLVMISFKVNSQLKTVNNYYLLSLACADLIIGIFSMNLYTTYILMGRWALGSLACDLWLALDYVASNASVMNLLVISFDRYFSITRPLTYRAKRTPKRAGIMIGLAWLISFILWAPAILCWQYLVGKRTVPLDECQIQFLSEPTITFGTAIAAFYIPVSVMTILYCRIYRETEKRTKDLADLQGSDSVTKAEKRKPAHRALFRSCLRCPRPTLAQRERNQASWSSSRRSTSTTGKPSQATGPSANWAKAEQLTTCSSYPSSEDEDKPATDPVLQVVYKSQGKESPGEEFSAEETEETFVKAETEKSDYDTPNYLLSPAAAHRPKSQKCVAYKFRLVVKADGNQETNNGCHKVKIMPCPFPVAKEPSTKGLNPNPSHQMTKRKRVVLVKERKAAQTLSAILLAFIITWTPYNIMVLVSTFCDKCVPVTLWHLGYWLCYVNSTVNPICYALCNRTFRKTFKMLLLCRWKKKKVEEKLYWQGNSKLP
Assay: Calcium mobilization assay, CHO cells stably expressing hM5
Assay type: cell-based
Excerpt: Chinese hamster ovary (CHO-K1) cells stably expressing rat (r)M1 were purchased from the American Type Culture Collection and cultured according to their indicated protocol. CHO cells stably expressing human (h)M2, hM3, and hM5 were described previously (Levey et al., 1991); hM1 and hM4 cDNAs were purchased from Missouri S&T cDNA Resource; rM4 cDNA was provided by T. I. Bonner (National Institutes of Health, Bethesda, Md.). hM1, hM4, and rM4 cDNAs were used to stably transfect CHO-K1 cells purchased from the American Type Culture Collection using Lipofectamine2000. […]
For low throughput measurement of agonist-evoked increases in intracellular calcium, CHO-K1 cells stably expressing muscarinic receptors were plated in 100 μL of growth medium at 5×10^4 (rM1, hM3, and hM5) or 6×10^4 cells per well (rM1 Y381A, hM2, and rM4) in Costar 96-well black-walled, tissue culture (TC)-treated, clear-bottom plates (Fisher). […] For calcium fluorescence measurements, CRCs of compounds (50 μl, 2×) were added 19 s after the beginning of data collection via a Flexstation II (Molecular Devices, Sunnyvale, Calif.). Fluorescence imaging continued for a total of 130 s acquisition time using an excitation wavelength of 488 nm, an emission wavelength of 525 nm, and a cutoff wavelength of 515 nm. […]

| SMILES | EC50 [µM] |
| --- | --- |
| CCOC(=O)N1[C@@H]2CC[C@H]1C[C@H](NCCNC(=O)c1ccccc1)C2 [Example 26, ethyl 3-((3-exo)-(2-benzamidoethyl)amino)-8-azabicyclo[3.2.1]octane-8-carboxylate] | > 10 |
| CCOC(=O)N1[C@@H]2CC[C@H]1C[C@@H](NCCNC(=O)c1ccccc1)C2 [Example 27, ethyl 3-((3-endo)-(2-benzamidoethyl)amino)-8-azabicyclo[3.2.1]octane-8-carboxylate] | ~10 |
